Assay results reported in article PMC6268995, “(E)-5-Styryl-1H-indole and (E)-6-Styrylquinoline Derivatives Serve as Probes for β-Amyloid Plaques” (Molecules, 2012).
“Also recorded” adds a separate entry of the source. Where two headings read alike, the source gives them in different places. Blank lines part the entries; values can stand above or below the compound they belong to.

Key:
Aβ1–40 aggregates [1] = target: T1, Aβ1–40 aggregates (Homo sapiens, UniProt P05067); experiment: Competition binding assay on Aβ1–40 aggregates using [125I]TZDM as radio-ligand; conditions: Aβ1–40 aggregates against [125I]TZDM; triplicate, mean ± SD
T1 construct: β-amyloid(1–40) were purchased from AnaSpec; purchased AnaSpec (San Jose, CA, USA)
Protocol: The lyophilized white powder of β-amyloid(1–40) were purchased from AnaSpec (San Jose, CA, USA). After reconstituted by adding basic buffer (1% NH4OH. 60–70 μL) to β-amyloid (1–40) (1 mg) aggregation of Aβ1–40 was carried out by gently dissolving Aβ1–40 (0.25 mg/mL) in a PBS buffer (pH 7.4). The solution was incubated at 37 °C for 72 h with gentle and constant shaking. Binding studies were carried out according to the procedure described previously with some modifications using [^125I]TZDM as the radiolabeled standard. […] The mixture was incubated at 37 °C for 2 h. […] Filters containing the bound ^125I ligand were counted in a γ-counter (WALLAC Wizard 1470, PerkinElmer Life Sciences, Waltham, MA, USA) with 75% counting efﬁciency. The IC50 values were determined using GraphPad Prism 5.0, and those for the inhibition constant (Ki) were calculated using the Cheng Prusoff equation: Ki = IC50/(1 + [L]/Kd).

Aβ1–40 aggregates [2] = target: T1, Aβ1–40 aggregates; design: method as in PMID 11384236; conditions: literature value ref 21; cited from earlier work
[3] = Partition coefficient determination (n-octanol/PBS); format: physicochemical; conditions: n-octanol / PBS 0.02 M, pH 7.4
Protocol: The determination of partition coefﬁcients of [^125I]8 and [^125I]17 was performed according to the procedure previously reported with some modifications. Ligand [^125I]8 or [^125I]17 (~5 μCi) was mixed with 3 mL each of n-octanol and PBS (0.02 M, pH 7.4) in a test tube. The test tube was vortexed for 5 min at room temperature, followed by centrifugation for 10 min at 3,000 rpm. Two weighed samples from the n-octanol (50 µL) and buffer layers (400 µL) were counted in a γ-counter. The partition coefﬁcient was expressed as the logarithm of the ratio of the counts per gram from n-octanol versus that of PBS. Samples from the n-octanol layer were repartitioned until consistent partition coefﬁcient values were obtained. The measurements were done in triplicate and repeated three times.

[4] = In vivo biodistribution in normal mice; design: species or system KunMing normal mice; conditions: for Biodistribution Blood / Biodistribution Brain / Biodistribution Heart / Biodistribution Kidney / Biodistribution Liver / Biodistribution Lung / Biodistribution Muscle / Biodistribution Spleen / Biodistribution Stomach: iv injection
Protocol: In vivo biodistribution studies were performed in KunMing normal mice (female, average weight 18–22 g) and in accordance with the national laws related to the care and experiments on laboratory animal. A saline solution (100 µL) containing [^125I]8 or [^125I]17 (1 µCi) was injected directly into the tail vein of mice. The mice (n = 5 for each time point) were sacriﬁced at designated time points post-injection. The organs of interest were removed and weighed, and the radioactivity was counted with an automatic γ-counter (WALLAC Wizard 1470).

Aβ plaques = Aβ plaques (Homo sapiens, UniProt P05067); experiment: In vitro labeling of brain sections from transgenic mouse by autoradiography; format: binding, transgenic model mouse (APP/PS1); conditions: APP/PS1, 12 months, male
Protocol: The brain sections mentioned above were incubated with [^125I]8 (5 µCi/100µL) for about 20 min at room temperature. Then the sections were washed with saturated Li2CO3 in 40% EtOH for 3 min and 40% EtOH for 3 min, followed by rinsing with water for 30 s. After drying, the ^125I-labeled sections were exposed to phosphorus ﬁlm for 8 h and then scanned with the phosphor imaging system (Cyclone, Packard) at the resolution of 600 dpi. The presence and localization of plaques were confirmed by the ﬂuorescent staining with thioﬂavin-S on the same sections using a Stereo Discovery V12 (Zeiss) instrument equipped with a LP 505 filter set (excitation: 405 nm).

Sequence of Aβ plaques (P05067 672-711 limits assumed): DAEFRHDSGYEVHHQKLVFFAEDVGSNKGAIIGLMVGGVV
T1 sequence (P05067 672-711 limits assumed): as above

SMILES: CN(C)c1ccc(-c2nc3ccc(I)cc3s2)cc1 [TZDM, reference compound]
Ki (Aβ1–40 aggregates [1]): 4.2 ± 0.4 nM
Ki (Aβ1–40 aggregates [2]): 0.9 ± 0.2 nM

logD [3]: 2.52
brain2min/brain60min ratio ([4]; index of washout rate from normal brain): 15.3
Biodistribution Blood ([4]; 2 min): 11.91 ± 0.62 % ID/g
Biodistribution Brain ([4]; 2 min): 4.27 ± 0.49 % ID/g
Biodistribution Heart ([4]; 2 min): 5.76 ± 0.38 % ID/g
Biodistribution Kidney ([4]; 2 min): 11.66 ± 1.52 % ID/g
Biodistribution Liver ([4]; 2 min): 14.73 ± 0.66 % ID/g
Biodistribution Lung ([4]; 2 min): 10.76 ± 0.63 % ID/g
Biodistribution Muscle ([4]; 2 min): 2.64 ± 0.40 % ID/g
Biodistribution Spleen ([4]; 2 min): 4.38 ± 0.33 % ID/g
Biodistribution Stomach ([4]; 2 min): 1.23 ± 0.56 % ID/organ
Biodistribution Blood ([4]; 15 min): 12.29 ± 1.30 % ID/g
Biodistribution Brain ([4]; 15 min): 1.37 ± 0.16 % ID/g
Biodistribution Heart ([4]; 15 min): 3.70 ± 0.40 % ID/g
Biodistribution Kidney ([4]; 15 min): 14.89 ± 4.23 % ID/g
Biodistribution Liver ([4]; 15 min): 10.66 ± 0.31 % ID/g
Biodistribution Lung ([4]; 15 min): 8.22 ± 0.88 % ID/g
Biodistribution Muscle ([4]; 15 min): 2.01 ± 0.24 % ID/g
Biodistribution Spleen ([4]; 15 min): 4.21 ± 0.26 % ID/g
Biodistribution Stomach ([4]; 15 min): 4.82 ± 0.46 % ID/organ
Biodistribution Blood ([4]; 30 min): 7.64 ± 0.62 % ID/g
Biodistribution Brain ([4]; 30 min): 0.64 ± 0.11 % ID/g
Biodistribution Heart ([4]; 30 min): 2.55 ± 0.52 % ID/g
Biodistribution Kidney ([4]; 30 min): 9.46 ± 1.95 % ID/g
Biodistribution Liver ([4]; 30 min): 7.14 ± 1.13 % ID/g
Biodistribution Lung ([4]; 30 min): 5.39 ± 0.83 % ID/g
Biodistribution Muscle ([4]; 30 min): 1.25 ± 0.04 % ID/g
Biodistribution Spleen ([4]; 30 min): 3.44 ± 0.21 % ID/g
Biodistribution Stomach ([4]; 30 min): 3.50 ± 0.19 % ID/organ
Biodistribution Blood ([4]; 60 min): 4.49 ± 0.28 % ID/g
Biodistribution Brain ([4]; 60 min): 0.28 ± 0.06 % ID/g
Biodistribution Heart ([4]; 60 min): 1.59 ± 0.28 % ID/g
Biodistribution Kidney ([4]; 60 min): 4.65 ± 0.98 % ID/g
Biodistribution Liver ([4]; 60 min): 4.45 ± 0.23 % ID/g
Biodistribution Lung ([4]; 60 min): 3.28 ± 0.10 % ID/g
Biodistribution Muscle ([4]; 60 min): 0.81 ± 0.12 % ID/g
Biodistribution Spleen ([4]; 60 min): 2.44 ± 0.12 % ID/g
Biodistribution Stomach ([4]; 60 min): 1.72 ± 0.21 % ID/organ
Biodistribution Blood ([4]; 120 min): 2.93 ± 0.30 % ID/g
Biodistribution Brain ([4]; 120 min): 0.20 ± 0.08 % ID/g
Biodistribution Heart ([4]; 120 min): 1.47 ± 0.48 % ID/g
Biodistribution Kidney ([4]; 120 min): 1.93 ± 0.76 % ID/g
Biodistribution Liver ([4]; 120 min): 4.19 ± 0.61 % ID/g
Biodistribution Lung ([4]; 120 min): 2.30 ± 0.20 % ID/g
Biodistribution Muscle ([4]; 120 min): 0.61 ±0.24 % ID/g
Biodistribution Spleen ([4]; 120 min): 1.87 ± 0.28 % ID/g
Biodistribution Stomach ([4]; 120 min): 3.48 ± 0.79 % ID/organ
Biodistribution Blood ([4]; 240 min): 1.50 ± 0.13 % ID/g
Biodistribution Brain ([4]; 240 min): 0.10 ± 0.02 % ID/g
Biodistribution Heart ([4]; 240 min): 0.65 ± 0.16 % ID/g
Biodistribution Kidney ([4]; 240 min): 1.34 ± 0.36 % ID/g
Biodistribution Liver ([4]; 240 min): 3.06 ± 0.36 % ID/g
Biodistribution Lung ([4]; 240 min): 1.43 ± 0.52 % ID/g
Biodistribution Muscle ([4]; 240 min): 0.35 ± 0.09 % ID/g
Biodistribution Spleen ([4]; 240 min): 1.37 ± 0.09 % ID/g
Biodistribution Stomach ([4]; 240 min): 2.31 ± 1.44 % ID/organ
SMILES: [125I]c1ccc(/C=C/c2ccc3[nH]ccc3c2)cc1 [[^125I]8]
Autoradiography labeling of Aβ plaques (Aβ plaques): intense and specific labeling of Aβ plaques; also recorded: excellent labeling of Aβ plaques in the cortex region; also recorded: clearly labeled amyloid plaques in the cortex region
